Here are results for three compounds from patent US3991187A, “Medicinal compositions and methods of use involving phosphoric acid esters” (Aktiebolaget Leo, priority 1971, dated 1976).

For one assay, the system named is gerbil colon. The assay can be described thus: smooth muscle stimulatory effect on the gerbil colon in vivo. Details: species or system mongolian gerbils. The procedure:
This example illustrates the smooth muscle stimulatory effect of esters of this invention on the gerbil colon in vivo.
The experiments are performed with mongolian gerbils, anesthetized with pentobarbital, 50 mg/kg. The ascending colon is exposed and carefully stretched between silk thread loops and a strain-gauge transducer.
After a stable base-line has been established an ester of this invention, sodium bis (4-(3-oxo-3-(2,4,6-trihydroxyphenyl)-propyl)phenyl) phosphate is infused i.v.
In doses from 40 mg/kg this treatment causes the gut to respond with a series of contractions.

The subject of assay [1] is Slow Reacting Substance (SRS). The assay can be described thus: antagonism to Slow Reacting Substance on the isolated guinea-pig ileum (Mathe & Strandberg). The assay is classed as cell-based. On the procedure: The antagonism to Slow Reacting Substance (SRS) is determined on the isolated guinea-pig ileum as described by Mathe & Strandberg (Acta physiol. scand. 82:460, 1971). Purified SRS is obtained from cat paws perfused with compound 48/80 (Strandberg & Uvnas: Acta physiol. scand. 82:358, 1971). Sodium bis(4-(3-oxo-3-(2,4,6-trihydroxyphenyl)propyl)phenyl) phosphate was tested in this system in several concentrations.

A further assay has as its system bronchial smooth muscle. In words: isolated perfused guinea-pig lung preparation, bronchoconstriction. The assay is classed as cell-based, guinea pigs. An excerpt:
The effects of esters of the present invention on bronchial smooth muscle have been investigated using an isolated perfused guinea-pig lung preparation according to Bhattacharya & Delaunois (Arch. Int. Pharmacodyn. 101:495, 1955). The lungs from guinea pigs weighing 300-400 g are removed, and the trachea and A. pulmonalis cannulated. The arterial cannula is connected to a perfusion fluid reservoir containing Tyrode solution buffered with 10 % Sorensen phosphate buffer. The tracheal cannula is connected with tubing to a carbogen gas supply delivering a constant amount per time unit. The perfusion pressure is measured in a side arm of the tubing with a "Mercury" transducer connected to an Ultralette UV-recorder. The compounds are injected via the arterial cannula, close to the entrance of A. pulmonalis in the lung.

A further assay has as its system PGE1. The assay can be described thus: prostaglandin-stimulated glycolysis of the prepubertal ovary (lactic acid production). The assay is classed as cell-based, rats. On the procedure:
The action of esters of the present invention on the prostaglandin-stimulated glycolysis of the prepubertal ovary is investigated. The method used has been described in detail by Perklev & Ahren (Life Sciences Part I, 10:1387, 1971). In these experiments ovaries from prepubertal rats are removed and placed in Erlenmeyer flasks containing compounds of this invention dissolved in Krebs biocarbonate buffer. After that the ovaries have been preincubated during 60 min. at 37° C in this medium, they are blotted on filter paper and then washed for 2 min. in plain buffer. The ovaries are then transferred to a new incubation medium containing prostaglandins (PG) dissolved in Krebs bicarbonate buffer and incubated at 37° C for 2 hrs with continuous shaking. The ovarian glycolysis is then determined by measuring the concentration of lactic acid in the incubation medium. When polyphloretin phosphate (PPP) is present in the preincubation medium in a concentration of 500 μg/ml, the subsequent ovarian lactic acid production produced by PGE1 is reduced to about 50% of that obtained with ovaries preincubated in plain buffer. When sodium bis(4-(3-(2,4,6-trihydroxyphenyl)propyl)phenyl)phosphate is investigated in the same experimental system, a 50% reduction of the lactate production is seen when only 50-100 μg/ml of the compound is present in the preincubation medium.

The test system of assay [2] is acetylcholine, 5-HT and bradykinin. In words: selectivity of the antagonism: other agonists on the gerbil colon. The assay is classed as cell-based, Gerbils (Meriones unguiculatus). The following applies: far higher concentrations than the prostaglandin-inhibitory ones. An excerpt: (§1) Results from these experiments give an approximate idea of the PG-inhibitory potency of the compounds. When more precise information about this is desired we use a more elaborate method involving the establishment of several PG dose-response curves in the presence of various concentrations of inhibitor. The method used is essentially the same as that described by Arunlakshana & Schild (Br. J. Pharm. 14:48, 1959). Other agonists, acetylcholine,5-HT and bradykinin, are included in these experiments in order to determine the selectivity of the antagonism.
(§2) In the quantitative assay it is confirmed that sodium bis(4-(3-oxo-3-(2,4,6-trihydroxyphenyl)propyl)phenyl)phosphate has a PG inhibition potency about 10 times that of PPP on a weight basis, and also the results with sodium bis (3,5-dihydroxy-4-(3-(4-hydroxyphenyl)propionyl)phenyl)phosphate are confirmed.

The test system of another assay is prostaglandins. In words: quantitative assay: PG dose-response curves in the presence of inhibitor (Arunlakshana & Schild), gerbil colon. The assay is classed as cell-based, Gerbils (Meriones unguiculatus).
From the text: as §1, §2

Assay [3] concerns prostaglandins E1, E2 F1α and F2α. In words: PG-inhibitory effect on the isolated gerbil colon. The assay is classed as cell-based, Gerbils (Meriones unguiculatus). Particulars: for concentration for 50 per cent reduction of the PG-induced contraction, as fraction of that of PPP: relative to PPP (10-75 μg/ml). The procedure: The PG-inhibitory effect of esters of the present invention on the gerbil colon are determined using the general technique described by Eakins, Miller & Karim (J. Pharm. Exp. Ther. 176:441, 1971). Gerbils (Meriones unguiculatus) of own breed, both sexes, weighing 50-80 g are used. The animal is stunned, colon ascendens immediately removed, and a 2-3 cm piece mounted in a 6 ml bath containing a modified de Jalon solution at 28° C and continuously oxygenated. Contractions of the organ are registered either isotonically or isometrically. When testing the inhibitory effect of a compound this is added to the bath 2 min before the addition of prostaglandin. […] Several concentrations of each antagonist are used.

Molecules are shown by their SMILES. Structures can show the parent of a compound that is named as a salt.

For the compound `O=C(CCc1ccc(OP(=O)([O-])Oc2ccc(CCC(=O)c3c(O)cc(O)cc3O)cc2)cc1)c1c(O)cc(O)cc1O.[Na+]` [sodium bis(4-(3-oxo-3-(2,4,6-trihydroxyphenyl)-propyl)phenyl) phosphate], the minimal effective dose in the assay with gerbil colon (Meriones unguiculatus, iv, infused i.v., gerbils anesthetized with pentobarbital, ascending colon, read-out: dose causing the gut to respond with a series of contractions) is not below 40 mg/kg. The minimal effective concentration in assay [1] (Cavia porcellus, concentrations as low as, read-out: concentration that inhibits contractions produced by SRS) was not below 5 µg/mL. For the same compound, the “manner of inhibition of SRS” value in assay [1] (parallel shift of the dose-response curves, no change in maximum contraction) was “competitive manner”. In addition, the “dose showing a bronchoconstricting effect” value in the assay on bronchial smooth muscle (injected via the arterial cannula, about 0.5 mg and upwards) was not below 0.5 mg. In the assay on PGE1, the “activity as a prostaglandin inhibitor relative to PPP” value is on record as 5-10 times. Also, the IC50 in the assay on PGE1 (Rattus norvegicus, preincubation 60 min at 37° C, read-out: concentration in the preincubation medium giving a 50% reduction of the lactate production) lay in the range of 50 to 100 µg/mL. In addition, the “influence on the contractions elicited by acetylcholine, 5-HT or bradykinin” value in assay [2] was “no influence”. The “PG inhibition potency relative to PPP” value in the assay on prostaglandins (on a weight basis) is given as “about 10 times”. In addition, in assay [3], the “concentration for 50 per cent reduction of the PG-induced contraction, as fraction of that of PPP” value was “about one tenth”.
For the compound `O=C(CCc1ccc(O)cc1)c1c(O)cc(OP(=O)(O)Oc2cc(O)c(C(=O)CCc3ccc(O)cc3)c(O)c2)cc1O` [sodium bis(3,5-dihydroxy-4-(3-(4-hydroxyphenyl)propionyl)phenyl phosphate], the “contraction of the colon” value in the assay on gerbil colon (i.v., same dose range (from 40 mg/kg)) is “give contraction in the same dose range”. The “inhibition of SRS” value in assay [1] is “inhibit SRS”. In the assay with PGE1 (compared with the compound giving 50% reduction at 50-100 μg/ml), the “prostaglandin inhibiting activity” value is “same order”. Further, in assay [2], the “influence on the contractions elicited by acetylcholine, 5-HT or bradykinin” value is “no influence”. For the same compound, the “results of the approximate assay (one fourth of the PPP concentration) in the quantitative assay” value with prostaglandins is “confirmed”. For the same compound, in assay [3], the “concentration for 50 per cent reduction of the PG-induced contraction, as fraction of that of PPP” value is “one fourth”.
Take `O=P(O)(Oc1ccccc1)Oc1ccccc1` [sodium salt of diphenyl phosphate, sodium diphenyl phosphates, reference compound]: in the assay with gerbil colon (doses up to 400 mg/kg), the “effect on the colon” value is recorded as “no effects at all”. Besides, in assay [1], the “inhibition of SRS” value was “without effect”. Further, the “bronchoconstricting effect” value in the assay on bronchial smooth muscle (dose 12.8 mg) is given as “completely lacked such an effect”. In addition, the “effect on PG-induced contraction” value in assay [3] (concentrations 10 times as high as that of PPP) was “without effect”.
